From patent publication US12110282B2, “Thiobenzopyrans and their use in preparation of drugs for treatment of rheumatoid arthritis” (HC SYNTHETIC PHARMACEUTICAL CO., LTD., priority 2020, dated 2024)
Counter-ions that a name gives are not always drawn.

Key:
healthy rats = assay: content of aminotransferase in the serum of healthy rats after oral administration for 15 days; format: in vivo; conditions: for ALT / AST: serum of healthy rats, oral administration for 15 days, n=10
Experimental: Elevated aminotransferase is a common side effect of Iguratimod. To investigate whether the compounds of the present disclosure have effects on aminotransferase, healthy rats were administered orally the compound of the present disclosure and Iguratimod for 15 days, respectively, and then the content of aminotransferase in the serum of rats was determined.

[1] = tested on: adjuvant arthritis (AA) of rats; assay: anti-arthritic activity in the animal model of adjuvant arthritis (AA) of rats, foot swelling by drainage method; format: in vivo; parameters: key to The average swelling degree before administration (X ± s) / Average swelling degree after administration (X ± s): (toe volume after − before inflammation)/volume before; fraction; conditions: rat adjuvant arthritis; for The average swelling degree before administration (X ± s): foot swelling degree before administration (baseline); for The average swelling degree before administration (X ± s) / Average swelling degree after administration (X ± s): n=10; for Average swelling degree after administration (X ± s): gavage 50 μg/dose/day for consecutive 5 days
Experimental: The study on the anti-arthritic activity of the compounds of the present disclosure was conducted based on the animal model of adjuvant arthritis (AA) of rats and on the establishment of adjuvant arthritis of rats. The rats were divided into 14 groups, with 10 rats in each group, and the rats were administered by gavage the compound of the present disclosure, a blank control, and a positive control substance of Iguratimod at a dose of 50 μg/dose/day for consecutive 5 days. A drainage method was used to determine the degree of foot swelling in rats of each group before and after administration, and the degree of foot swelling in rats before and after administration was calculated to determine whether the drug was effective.
Foot swelling degree X=(volume of the toe after inflammation−volume of toe before inflammation)/volume of the toe before inflammation×100%.

SMILES | ALT (healthy rats) [U/L] | AST (healthy rats) [U/L] | The average swelling degree before administration (X ± s) [1] | Average swelling degree after administration (X ± s) [1] | anti-inflammatory effect compared with Iguratimod ([1]; conclusion in words) | side effects (aminotransferase elevation) compared with Iguratimod (healthy rats; healthy rats, oral, conclusion in words)
CS(=O)(=O)Nc1cc2scc(NC=O)c(=O)c2cc1S(=O)(=O)c1ccccc1 [Compound 4 potassium salt] | 132 ± 8.79 | 85 ± 6.87 | 0.418 ± 0.0198 | 0.019 ± 0.0274 | – | –
CS(=O)(=O)Nc1cc2scc(NC=O)c(=O)c2cc1S(=O)(=O)c1ccccc1 [Compound 4, N-(7-(methylsulfonamido)-4-oxo-6-(phenylsulfonyl)-4H-thiobenzopyran-3-yl)carboxamide] | 133 ± 9.04 | 79 ± 9.82 | 0.425 ± 0.0247 | 0.017 ± 0.0305 | better anti-inflammatory effect | –
CS(=O)(=O)Nc1cc2scc(NC=O)c(=O)c2cc1Oc1ccccc1 [Compound 1 potassium salt] | 126 ± 10.05 | 78 ± 8.74 | 0.455 ± 0.0279 | 0.020 ± 0.0323 | – | –
CS(=O)(=O)Nc1cc2scc(NC=O)c(=O)c2cc1S(=O)(=O)c1ccccc1 [Compound 4 sodium salt] | 130 ± 9.15 | 83 ± 8.09 | 0.435 ± 0.0290 | 0.018 ± 0.0303 | – | –
CS(=O)(=O)Nc1cc2scc(NC=O)c(=O)c2cc1Oc1ccccc1 [Compound 1, 3-formamido-7-methylsulfonamido-6-phe noxy-4H-I-thiobenzopyran-4-one] | 125 ± 10.24 | 75 ± 8.22 | 0.453 ± 0.0290 | 0.020 ± 0.0335 | – | –
CS(=O)(=O)Nc1cc2scc(NC=O)c(=O)c2cc1Sc1ccccc1 [Compound 2 sodium salt] | 104 ± 9.05 | 76 ± 9.56 | 0.448 ± 0.0291 | 0.020 ± 0.0325 | – | –
CS(=O)(=O)Nc1cc2scc(NC=O)c(=O)c2cc1Sc1ccccc1 [Compound 2, 3-formamido-7-methylsulfonamido-6-phenylthio-4H-1-thiobenzopyran-4-one] | 108 ± 9.43 | 80 ± 9.28 | 0.430 ± 0.0312 | 0.019 ± 0.0315 | – | further weaker side effects
CS(=O)(=O)Nc1cc2occ(NC=O)c(=O)c2cc1Oc1ccccc1 [Iguratimod, 3-formamido-7-methylsulfonamido-6-phenoxy-4H-1-benzopyran-4-one, reference compound] | 173 ± 9.86 | 145 ± 10.98 | 0.445 ± 0.0321 | 0.029 ± 0.0389 | – | –
CS(=O)(=O)Nc1cc2scc(NC=O)c(=O)c2cc1[S+]([O-])c1ccccc1 (stereo not drawn) [Compound 3 potassium salt] | 141 ± 7.89 | 89 ± 8.91 | 0.454 ± 0.0277 | 0.023 ± 0.0330 | – | –
CS(=O)(=O)Nc1cc2scc(NC=O)c(=O)c2cc1[S+]([O-])c1ccccc1 (stereo not drawn) [Compound 3 sodium salt] | 140 ± 8.83 | 87 ± 9.06 | 0.438 ± 0.0229 | 0.022 ± 0.0333 | – | –
CS(=O)(=O)Nc1cc2scc(NC=O)c(=O)c2cc1[S+]([O-])c1ccccc1 (stereo not drawn) [Compound 3] | 143 ± 7.83 | 90 ± 8.76 | 0.449 ± 0.0305 | 0.025 ± 0.0339 | – | –
CS(=O)(=O)Nc1cc2scc(NC=O)c(=O)c2cc1Sc1ccccc1 [Compound 2 potassium salt] | 109 ± 9.11 | 77 ± 9.02 | 0.453 ± 0.0290 | 0.021 ± 0.0335 | – | –
CS(=O)(=O)Nc1cc2scc(NC=O)c(=O)c2cc1Oc1ccccc1 [Compound 1 sodium salt] | 129 ± 10.18 | 76 ± 9.22 | 0.450 ± 0.0284 | 0.023 ± 0.0306 | – | –
